Laboratory results: ChEMBL document CHEMBL1201862, “PubChem BioAssay data set” (2004)
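Following 48 hours of exposure in 96-well plates, responses at five concentrations were used to interpolate endpoints linearly. Abbreviation: GI50, concentration required for 50% inhibition of growth.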 Activity calls are given as the source filed them. No stated cut-off is given here; in the data, active = GI50 up to about 1.1 µM and inactive = higher.

Experiments:
Experiment in all cases: NCI-60 cell line screen, 48 h
UACC-257 = test system: UACC-257
A549 = test system: A549
COLO 205 = test system: COLO 205
SNB-19 = test system: SNB-19
SF-539 = test system: SF-539
SW-620 = test system: SW-620
SK-MEL-28 = test system: SK-MEL-28
HCT-15 = test system: HCT-15
Malme-3M = test system: Malme-3M
SK-OV-3 = test system: SK-OV-3
HOP-62 = test system: HOP-62
MOLT-4 = test system: MOLT-4
CAKI-1 = test system: CAKI-1
SN12C = test system: SN12C
NCI-H226 = test system: NCI-H226
HCT-116 = test system: HCT-116
SF-268 = test system: SF-268
U-251 = test system: U-251
IGROV-1 = test system: IGROV-1
K562 = test system: K562

SMILES | GI50 (UACC-257) | GI50 (A549) | GI50 (COLO 205) | GI50 (SNB-19) | GI50 (SF-539) | GI50 (SW-620) | GI50 (SK-MEL-28) | GI50 (HCT-15) [µM] | GI50 (Malme-3M) | GI50 (SK-OV-3) | GI50 (HOP-62) | GI50 (MOLT-4) | GI50 (CAKI-1) | GI50 (SN12C) | GI50 (NCI-H226) | GI50 (HCT-116) | GI50 (SF-268) | GI50 (U-251) | GI50 (IGROV-1) | GI50 (K562)
CN(C)S(=O)(=O)n1ccnc1 | > 100 µM (inactive) | > 100 µM (inactive) | > 100 µM (inactive) | > 100 µM (inactive) | > 100 µM (inactive) | > 100 µM (inactive) | > 100 µM (inactive) | > 100 | > 100 µM (inactive) | > 100 µM (inactive) | > 100 µM (inactive) | > 100 µM (inactive) | > 100 µM (inactive) | > 100 µM (inactive) | > 100 µM (inactive) | > 100 µM (inactive) | > 100 µM (inactive) | > 100 µM (inactive) | > 100 µM (inactive) | > 100 µM (inactive)
N#Cc1c(C#N)c(SSc2c(C#N)c(C#N)c(N)n2-c2cccc3ccccc23)n(-c2cccc3ccccc23)c1N | 5.62 µM (inactive) | 19.9 µM (inactive) | 3.67 µM (inactive) | 20.9 µM (inactive) | 15.7 µM (inactive) | 2.56 µM (inactive) | 6.03 µM (inactive) | 1.98 | 1.85 µM (inactive) | 24.1 µM (inactive) | 21.7 µM (inactive) | 2.63 µM (inactive) | 8.05 µM (inactive) | 12 µM (inactive) | 30.2 µM (inactive) | 2.37 µM (inactive) | 14.4 µM (inactive) | 19.7 µM (inactive) | 7.45 µM (inactive) | 3.51 µM (inactive)
COc1ccc(C(N)=O)cc1/N=N/N(C)C | > 100 µM (inactive) | > 100 µM (inactive) | > 100 µM (inactive) | > 100 µM (inactive) | > 100 µM (inactive) | > 100 µM (inactive) | > 100 µM (inactive) | > 100 | > 100 µM (inactive) | > 100 µM (inactive) | > 100 µM (inactive) | > 100 µM (inactive) | > 100 µM (inactive) | > 100 µM (inactive) | > 100 µM (inactive) | > 100 µM (inactive) | > 100 µM (inactive) | > 100 µM (inactive) | > 100 µM (inactive) | > 100 µM (inactive)
Clc1ccccc1CN1COc2c(ccc3cccnc23)C1 | 2.72 µM (inactive) | 3.75 µM (inactive) | 8.38 µM (inactive) | 11.8 µM (inactive) | 3.59 µM (inactive) | 3.42 µM (inactive) | 3.61 µM (inactive) | 2.06 | 4.78 µM (inactive) | 8.05 µM (inactive) | 2.69 µM (inactive) | 2.22 µM (inactive) | 2.88 µM (inactive) | 6.93 µM (inactive) | 3.87 µM (inactive) | 3.07 µM (inactive) | 3.65 µM (inactive) | 5.6 µM (inactive) | 3.5 µM (inactive) | 2.12 µM (inactive)
COC(=O)C1C(=O)CC2CCCCC21 (stereo not given) | > 100 µM (inactive) | > 100 µM (inactive) | > 100 µM (inactive) | > 100 µM (inactive) | > 100 µM (inactive) | > 100 µM (inactive) | > 100 µM (inactive) | > 100 | > 100 µM (inactive) | > 100 µM (inactive) | > 100 µM (inactive) | > 100 µM (inactive) | > 100 µM (inactive) | > 100 µM (inactive) | > 100 µM (inactive) | > 100 µM (inactive) | > 100 µM (inactive) | > 100 µM (inactive) | > 100 µM (inactive) | > 100 µM (inactive)
Cc1ccccc1NC(=O)C1C(=O)N(c2ccccc2C)C(=O)/C1=N\N (stereo not given) | > 100 µM (inactive) | > 100 µM (inactive) | > 100 µM (inactive) | > 100 µM (inactive) | > 100 µM (inactive) | > 100 µM (inactive) | > 100 µM (inactive) | > 100 | > 100 µM (inactive) | > 100 µM (inactive) | > 100 µM (inactive) | > 100 µM (inactive) | > 100 µM (inactive) | > 100 µM (inactive) | > 100 µM (inactive) | > 100 µM (inactive) | > 100 µM (inactive) | > 100 µM (inactive) | > 100 µM (inactive) | > 100 µM (inactive)
CCCCCCCCCCCCCCCCNC(=O)/C(=C\c1ccc(Cl)c(Cl)c1)NC(=O)c1ccccc1 | > 100 µM (inactive) | 43.6 µM (inactive) | 35.1 µM (inactive) | 46.3 µM (inactive) | 16.5 µM (inactive) | 31.7 µM (inactive) | 70.1 µM (inactive) | 30.8 | > 100 µM (inactive) | 53 µM (inactive) | 21.4 µM (inactive) | 15.5 µM (inactive) | 66.7 µM (inactive) | 25.8 µM (inactive) | 23.6 µM (inactive) | 37.9 µM (inactive) | 46.9 µM (inactive) | 35.4 µM (inactive) | 16.8 µM (inactive) | 22 µM (inactive)
CN(C)c1ccc(/N=N/c2ccncc2)cc1 | > 100 µM (inactive) | > 100 µM (inactive) | 56.6 µM (inactive) | > 100 µM (inactive) | > 100 µM (inactive) | > 100 µM (inactive) | > 100 µM (inactive) | > 100 | > 100 µM (inactive) | 40 µM (inactive) | > 100 µM (inactive) | 39.8 µM (inactive) | > 100 µM (inactive) | > 100 µM (inactive) | 64.4 µM (inactive) | > 100 µM (inactive) | 85.7 µM (inactive) | > 100 µM (inactive) | > 100 µM (inactive) | 43.5 µM (inactive)
O=C(/C=C/c1ccccc1O)c1cccc2ccccc12 | > 69.5 µM (inactive) | > 80.2 µM (inactive) | > 44.8 µM (inactive) | 69.2 µM (inactive) | 76.4 µM (inactive) | > 28.1 µM (inactive) | > 100 µM (inactive) | 23.7 | > 100 µM (inactive) | > 100 µM (inactive) | > 81.7 µM (inactive) | 21.1 µM (inactive) | > 92.9 µM (inactive) | 44.4 µM (inactive) | > 46.3 µM (inactive) | 27.6 µM (inactive) | 48.8 µM (inactive) | 42.3 µM (inactive) | > 51.4 µM (inactive) | 32 µM (inactive)
COc1cc(OC)c(/C=C\c2cc(/C=C/c3c(OC)cc(OC)cc3OC)c3ccccc3[n+]2C)c(OC)c1 | 2.92 µM (inactive) | 3.94 µM (inactive) | 1.67 µM (inactive) | 8.47 µM (inactive) | 2.22 µM (inactive) | 2.39 µM (inactive) | 3.39 µM (inactive) | 0.719 | 1.96 µM (inactive) | 4.69 µM (inactive) | 1.07 µM (active) | 1.98 µM (inactive) | 6.61 µM (inactive) | 2.18 µM (inactive) | 5.96 µM (inactive) | 2.47 µM (inactive) | 2.52 µM (inactive) | 1.28 µM (inactive) | 3.24 µM (inactive) | 1.64 µM (inactive)
CCOC(=O)CC(N1CC1)N1CC1 | > 10 µM (inactive) | > 10 µM (inactive) | > 10 µM (inactive) | > 10 µM (inactive) | > 10 µM (inactive) | > 10 µM (inactive) | > 10 µM (inactive) | > 10 | > 10 µM (inactive) | > 10 µM (inactive) | > 10 µM (inactive) | > 10 µM (inactive) | > 10 µM (inactive) | > 10 µM (inactive) | > 10 µM (inactive) | > 10 µM (inactive) | > 10 µM (inactive) | > 10 µM (inactive) | > 10 µM (inactive) | > 10 µM (inactive)
O=C1OC2(c3ccccc3Oc3ccccc32)c2ccccc21 | 99.5 µM (inactive) | > 100 µM (inactive) | > 100 µM (inactive) | > 100 µM (inactive) | > 100 µM (inactive) | > 100 µM (inactive) | > 100 µM (inactive) | > 100 | > 100 µM (inactive) | > 100 µM (inactive) | > 100 µM (inactive) | > 100 µM (inactive) | > 100 µM (inactive) | > 100 µM (inactive) | > 100 µM (inactive) | > 100 µM (inactive) | > 100 µM (inactive) | > 100 µM (inactive) | > 100 µM (inactive) | 50.8 µM (inactive)
CN(C)Cc1cc(/N=N/c2cccc(Cl)c2)ccc1O | 14.5 µM (inactive) | 15.5 µM (inactive) | 19.5 µM (inactive) | 18.8 µM (inactive) | 16 µM (inactive) | 10.7 µM (inactive) | 13.6 µM (inactive) | 4.9 | 16.7 µM (inactive) | 19.9 µM (inactive) | 10.2 µM (inactive) | 13.2 µM (inactive) | 21.2 µM (inactive) | 28.6 µM (inactive) | 17.4 µM (inactive) | 15.2 µM (inactive) | 11.6 µM (inactive) | 16.9 µM (inactive) | 10.9 µM (inactive) | 3.27 µM (inactive)
Cc1ccc(SCC(=O)C2=C(O)CCCC2=O)cc1 | > 100 µM (inactive) | > 100 µM (inactive) | > 100 µM (inactive) | > 100 µM (inactive) | > 100 µM (inactive) | > 100 µM (inactive) | > 100 µM (inactive) | > 100 | > 100 µM (inactive) | > 100 µM (inactive) | > 100 µM (inactive) | > 100 µM (inactive) | > 100 µM (inactive) | > 100 µM (inactive) | > 100 µM (inactive) | > 100 µM (inactive) | > 100 µM (inactive) | > 100 µM (inactive) | > 100 µM (inactive) | > 100 µM (inactive)
